Experimental data from PubChem BioAssay AID248 (DTP/NCI, 2004).
Values joined by “and” are separate entries in the source; they are usually repeats but may differ in a detail not shown here. Equal values may be shown once. Inconclusive results and toxic doses are left out. Cut-off read from the data, not from the text of the source: active = T/C of 150% or more; inactive = T/C below 125%.

Tested on: L1210 leukemia ip in BDF1 mice, survival T/C
Assay: NCI In Vivo Anticancer Drug Screen. Data for tumor model L1210 Leukemia (intraperitoneal) in B6D2F1 (BDF1) mice
Details: endpoint: mean survival time, higher = longer survival
Outline: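 Read-out is survival time, reported as the treated-group measurement over the vehicle-control measurement.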

[1] = dose: 100.0 mg/kg/injection, schedule: Q04DX003 (ip), vehicle: saline with Tween-80
[2] = dose: 200.0 mg/kg/injection, schedule: Q04DX003 (ip), vehicle: saline with Tween-80
[3] = dose: 400.0 mg/kg/injection, schedule: Q04DX003 (ip), vehicle: saline with Tween-80
[4] = dose: 100.0 mg/kg/injection, schedule: Q01DX009 (ip), vehicle: Klucel (hydroxypropylcellulose) (HPC)
[5] = dose: 100.0 mg/kg/injection, schedule: Q04DX003 (ip), vehicle: Klucel (hydroxypropylcellulose) (HPC)
[6] = dose: 200.0 mg/kg/injection, schedule: Q01DX009 (ip), vehicle: Klucel (hydroxypropylcellulose) (HPC)
[7] = dose: 200.0 mg/kg/injection, schedule: Q04DX003 (ip), vehicle: Klucel (hydroxypropylcellulose) (HPC)
[8] = dose: 400.0 mg/kg/injection, schedule: Q01DX009 (ip), vehicle: Klucel (hydroxypropylcellulose) (HPC)
[9] = dose: 400.0 mg/kg/injection, schedule: Q04DX003 (ip), vehicle: Klucel (hydroxypropylcellulose) (HPC)
[10] = dose: 100.0 mg/kg/injection, schedule: Q01DX001 (ip), vehicle: saline with Tween-80
[11] = dose: 200.0 mg/kg/injection, schedule: Q01DX001 (ip), vehicle: saline with Tween-80
[12] = dose: 100.0 mg/kg/injection, schedule: Q01DX009 (ip), vehicle: saline with Tween-80
[13] = dose: 200.0 mg/kg/injection, schedule: Q01DX009 (ip), vehicle: saline with Tween-80
[14] = dose: 400.0 mg/kg/injection, schedule: Q01DX009 (ip), vehicle: saline with Tween-80
[15] = dose: 100.0 mg/kg/injection, schedule: Q01DX001 (ip), vehicle: carboxymethylcellulose (CMC)
[16] = dose: 200.0 mg/kg/injection, schedule: Q01DX001 (ip), vehicle: carboxymethylcellulose (CMC)
[17] = dose: 400.0 mg/kg/injection, schedule: Q01DX001 (ip), vehicle: carboxymethylcellulose (CMC)

Measured: T/C

COC(=O)CCC(=O)c1ccc(Cl)cc1
inactive: dose: 100.0 mg/kg/injection, schedule: Q01DX009 (ip), vehicle: gum acacia 98 % of control | dose: 100.0 mg/kg/injection, schedule: Q04DX003 (ip), vehicle: gum acacia 100 % of control | dose: 200.0 mg/kg/injection, schedule: Q01DX009 (ip), vehicle: gum acacia 97 % of control | dose: 200.0 mg/kg/injection, schedule: Q04DX003 (ip), vehicle: gum acacia 96 % of control | dose: 400.0 mg/kg/injection, schedule: Q01DX009 (ip), vehicle: gum acacia 101 % of control | dose: 400.0 mg/kg/injection, schedule: Q04DX003 (ip), vehicle: gum acacia 102 % of control

c1ccc2c(c1)ccc1ccccc12
inactive: [1] 100 % of control | [2] 92 % of control | [3] 92 % of control

O=S1(=O)CCC(NCCSS(=O)(=O)O)CC1
inactive: [1] 96 % of control | [2] 96 % of control | [3] 104 % of control

S=C(NCc1ccco1)NCc1ccco1
inactive: dose: 155.0 mg/kg/injection, schedule: Q01DX Z (ip), vehicle: methylcellulose (MC) 92 % of control | dose: 233.0 mg/kg/injection, schedule: Q01DX Z (ip), vehicle: methylcellulose (MC) 100 % of control

COc1ccc(NC(=O)Oc2ccc(OC)cc2)cc1
inactive: [4] 103 % of control | [5] 97 % of control | [6] 95 % of control | [7] 89 % of control | [8] 89 % of control | [9] 91 % of control

C[CH2][Sn]([CH2]C)([CH2]C)[S]Cc1ccccc1
inactive: dose: 1.56 mg/kg/injection, schedule: Q01DX009 (ip), vehicle: saline with Tween-80 97 % of control | dose: 3.13 mg/kg/injection, schedule: Q01DX009 (ip), vehicle: saline with Tween-80 95 % of control | dose: 6.25 mg/kg/injection, schedule: Q01DX009 (ip), vehicle: saline with Tween-80 87 % of control

CCCN(CCC)CP(=O)(CN(CCC)CCC)CN(CCC)CCC
inactive: dose: 25.0 mg/kg/injection, schedule: Q04DX003 (ip), vehicle: saline with Tween-80 92 % of control | dose: 50.0 mg/kg/injection, schedule: Q04DX003 (ip), vehicle: saline with Tween-80 90 % of control | [1] 93 % of control

O=[N+]([O-])C=C1CCCCC1
inactive: [10] 101 % of control | [11] 109 % of control

COC(=O)C(C)CSCc1ccccc1 (centres undefined)
inactive: dose: 100.0 mg/kg/injection, schedule: Q04DX002 (ip), vehicle: saline 108 % of control | dose: 400.0 mg/kg/injection, schedule: Q04DX002 (ip), vehicle: saline 89 % of control

CCCCSP(=S)(SCCCC)c1ccc(Cl)cc1
inactive: dose: 100.0 mg/kg/injection, schedule: Q04DX002 (ip), vehicle: saline with Tween-80 90 % of control | dose: 200.0 mg/kg/injection, schedule: Q04DX002 (ip), vehicle: saline with Tween-80 93 % of control | dose: 400.0 mg/kg/injection, schedule: Q04DX002 (ip), vehicle: saline with Tween-80 97 % of control

CS(=O)(=O)Nc1ccccc1OS(C)(=O)=O
inactive: dose: 75.0 mg/kg/injection, schedule: Q01DX001 (ip), vehicle: saline 102 % of control | dose: 150.0 mg/kg/injection, schedule: Q01DX001 (ip), vehicle: saline 106 % of control | dose: 300.0 mg/kg/injection, schedule: Q01DX001 (ip), vehicle: saline 106 % of control

CCOC(=O)C(O)(NC(=O)N/N=C/c1ccccc1)C(=O)OCC
inactive: [12] 101 % of control | [1] 106 % of control | [13] 92 % of control | [2] 104 % of control | [14] 93 % of control | [3] 101 % of control

[O-][n+]1ccc(Cl)cc1
inactive: dose: 100.0 mg/kg/injection, schedule: Q01DX009 (ip), vehicle: saline 100 % of control | dose: 200.0 mg/kg/injection, schedule: Q01DX009 (ip), vehicle: saline 96 % of control | dose: 400.0 mg/kg/injection, schedule: Q01DX009 (ip), vehicle: saline 94 % of control

CC(=O)OC1OC(COC(=O)c2ccccc2)C(OC(=O)c2ccccc2)C1OC(=O)c1ccccc1 (centres undefined)
inactive: dose: 100.0 mg/kg/injection, schedule: Q01DX001 (ip), vehicle: Klucel (hydroxypropylcellulose) (HPC) 118 % of control and 95 % of control | [4] 92 % of control | dose: 200.0 mg/kg/injection, schedule: Q01DX001 (ip), vehicle: Klucel (hydroxypropylcellulose) (HPC) 97 % of control and 92 % of control | dose: 400.0 mg/kg/injection, schedule: Q01DX001 (ip), vehicle: Klucel (hydroxypropylcellulose) (HPC) 101 % of control and 92 % of control | [8] 92 % of control

CC(=O)Oc1c2ccsc2cc2sccc12
inactive: [10] 96 % of control | [11] 94 % of control | dose: 400.0 mg/kg/injection, schedule: Q01DX001 (ip), vehicle: saline with Tween-80 94 % of control

COc1ccc(Cl)cc1NC(=O)c1ccccc1C(=O)O
inactive: [4] 98 % of control | [5] 101 % of control | [6] 102 % of control | [7] 96 % of control | [8] 94 % of control | [9] 103 % of control

Nc1ccc(C(=O)O)c(O)c1
inactive: dose: 37.88 mg/kg/injection, schedule: Q01DX Z (ip), vehicle: carboxymethylcellulose (CMC) 105 % of control | dose: 75.75 mg/kg/injection, schedule: Q01DX Z (ip), vehicle: carboxymethylcellulose (CMC) 96 % of control | [15] 97 % of control | [12] 104 % of control | [1] 96 % of control and 97 % of control | dose: 151.5 mg/kg/injection, schedule: Q01DX Z (ip), vehicle: carboxymethylcellulose (CMC) 96 % of control | [16] 97 % of control | [13] 97 % of control | [2] 95 % of control and 103 % of control | dose: 303.0 mg/kg/injection, schedule: Q01DX Z (ip), vehicle: carboxymethylcellulose (CMC) 95 % of control | [17] 89 % of control | [14] 95 % of control | [3] 95 % of control and 101 % of control

CCC(C)C(C1=C(O)c2ccccc2C(=O)C1=O)C1=C(O)c2ccccc2C(=O)C1=O (centres undefined)
inactive: dose: 75.0 mg/kg/injection, schedule: Q01DX001 (ip), vehicle: carboxymethylcellulose (CMC) 97 % of control | dose: 150.0 mg/kg/injection, schedule: Q01DX001 (ip), vehicle: carboxymethylcellulose (CMC) 104 % of control

CCOC(=O)c1c(C)c2c(n1C)CCC(CCC(C)=O)C2=O (centres undefined)
inactive: [15] 104 % of control | [16] 97 % of control | [17] 93 % of control

CC(C)C(=O)Nc1ccc(Cl)c(Cl)c1
inactive: dose: 222.0 mg/kg/injection, schedule: Q01DX Z (ip), vehicle: methylcellulose (MC) 111 % of control | dose: 333.0 mg/kg/injection, schedule: Q01DX Z (ip), vehicle: methylcellulose (MC) 98 % of control | dose: 500.0 mg/kg/injection, schedule: Q01DX Z (ip), vehicle: methylcellulose (MC) 102 % of control

N=C(N)S(=O)O
inactive: [12] 104 % of control

CCCCCCCCCCCCCCCCCCNC(=O)Nc1cccc(C)c1C
inactive: [4] 92 % of control | [5] 87 % of control | [6] 89 % of control | [7] 92 % of control | [8] 94 % of control | [9] 88 % of control

Cc1ccc(C)c(NC(=O)C2CCCCC2C(=O)O)c1 (centres undefined)
inactive: dose: 100.0 mg/kg/injection, schedule: Q04DX002 (ip), vehicle: Klucel (hydroxypropylcellulose) (HPC) 118 % of control | dose: 200.0 mg/kg/injection, schedule: Q04DX002 (ip), vehicle: Klucel (hydroxypropylcellulose) (HPC) 96 % of control | dose: 400.0 mg/kg/injection, schedule: Q04DX002 (ip), vehicle: Klucel (hydroxypropylcellulose) (HPC) 103 % of control

CCOC(=O)C(NC(N)=O)C(=O)OCC
inactive: [4] 95 % of control | [5] 95 % of control | [6] 101 % of control | [7] 97 % of control | [8] 101 % of control | [9] 104 % of control

COc1ccc([N+](=O)[O-])cc1NC(=O)Cc1ccccc1
inactive: [12] 107 % of control | [13] 101 % of control | [14] 91 % of control
